Data: patent US20150147436A1, “PRODUCTION OF CHEESE WITH S. THERMOPHILUS” (DuPont Nutrition BioSciences ApS, priority 2011, published 2015)

Key:
[1] = system: ur(−) S. thermophilus; experiment: Acidification of milk by S. thermophilus with or without sodium formate (Example 2); type: cell-based; conditions: 10 ppm sodium formate, 2% milk, 40° C., no Lactococci, 350 minutes
Description: Samples of 2% milk taken from the same source were treated with ur(+) S. thermophilus without formate, ur(−) S. thermophilus without formate, and ur(−) S. thermophilus with 10 ppm sodium formate. Lactoccocci bacteria were not used. The milk was maintained at 40° C., and pH measurements were taken for 350 minutes.
FIG. 2 is a graph showing exemplary results from this experiment.

[2] = system: urease enzyme; experiment: Floating curd experiment in test tubes (Example 3); conditions: Lactococci + ur(+) S. thermophilus + urease inhibitor, fermented at 35° C. to pH 4.65, heated at about 66° C. (test tube 3)
Description: Four experiments were conducted in which milk was treated with various bacteria. In experiment 1, only Lactococci bacteria were added. In experiment 2, a blend of Lactococci bacteria and ur(+) S. thermophilus bacteria were added. In experiment 3, a blend of Lactococci bacteria, ur(+) S. thermophilus bacteria, and the urease inhibitor flurofamide were added. In experiment 4, only ur(+) S. thermophilus bacteria were added.
In each experiment, the milk was fermented with the bacteria at 35° C. until the cheese reached a pH of 4.65. A sample of the cheese was placed into a test tube, which was heated at about 66° C. for about 10 minutes. After 10 minutes of heating, a small pipette or thin wire was used to agitate the sample. The samples were held at about 66° C. for another ten minutes, at which time the photograph of the test tubes depicted in FIG. 3, was taken.
Test tube 4 is a positive control that contains ur(+) S. thermophilus, which has urease enzymes that can hydrolyze urea in milk.

Row | Structure (SMILES) | pH decrease effected by the ur(−) S. thermophilus [1] | floating curd [2]
1 | O=C[O-].[Na+] [sodium formate] | significantly accelerated | –
2 | NP(N)(=O)NC(=O)c1ccc(F)cc1 [flurofamide] | – | no floating curd
